What was measured:
[1] = system: HCV replicon cells Huh 9B; assay type: cell-based; conditions: concentration reducing total cell area by 50% relative to DMSO controls; methylene blue, absorbance 620 nm; 72 h incubation
[2] = system: HCV replicon cells Huh 9B; test: HCV replicon assay (luciferase readout); assay type: cell-based; conditions: concentration reducing replicon level (luciferase activity) by 50% vs untreated cell control, 72 h incubation
Method in brief: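 Compounds, made up at twice final strength (final DMSO 1%), were added to subgenomic replicon cells one day after plating. Incubation then ran 72 h at 37 °C, 5% CO2, without G418. Replication was quantified as firefly luciferase luminescence in lysed cells, with cytotoxicity assessed on a duplicate clear plate.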

| Compound | TD50 [1] | IC50 ([2]; Hepatitis C virus, 72 h) [µM] | IC50 [2] [µM] |
| --- | --- | --- | --- |
| Cc1ccc(NC(=O)c2ccc(N3CCOCC3)cc2)cc1-c1ccc(C(=O)NCc2cccc(Br)c2)cc1 [Example 88, 2′-Methyl-5′-(4-morpholin-4-yl-benzoylamino)-biphenyl-4-carboxylic acid 3-bromo-benzylamide] | ** (** > 50 μM) | 1 to 5 |  |
| Cc1cccc(CNC(=O)c2ccc(-c3cc(NC(=O)c4ccc(N5CCOCC5)cc4)ccc3C)cc2)c1 [Example 89, 2′-Methyl-5′-(4-morpholin-4-yl-benzoylamino)-biphenyl-4-carboxylic acid 3-methyl-benzylamide] | ** (** > 50 μM) | 1 to 5 |  |
| Cc1ccc(NC(=O)c2ccc(N3CCOCC3)cc2)cc1-c1ccc(C(=O)Nc2ccc(Br)c(Cl)c2)cc1 [Example 90, 2′-Methyl-5′-(4-morpholin-4-yl-benzoylamino)-biphenyl-4-carboxylic acid (4-bromo-3-chloro-phenyl)-amide] | ** (** > 50 μM) | > 5 |  |
| COc1cccc(NC(=O)c2ccc(-c3cc(NC(=O)c4ccc(N5CCOCC5)cc4)ccc3C)cc2)c1 [Example 91, 2′-Methyl-5′-(4-morpholin-4-yl-benzoylamino)-biphenyl-4-carboxylic acid (3-methoxy-phenyl)-amide] | ** (** > 50 μM) | 1 to 5 |  |
| Cc1ccc(NC(=O)c2ccc(N3CCOCC3)cc2)cc1-c1ccc(C(=O)NCc2cccc(OC(F)(F)F)c2)cc1 [Example 92, 2′-Methyl-5′-(4-morpholin-4-yl-benzoylamino)-biphenyl-4-carboxylic acid 3-trifluoromethoxy-benzylamide] | ** (** > 50 μM) | 1 to 5 |  |
| Cc1ccc(NC(=O)c2ccc(N3CCOCC3)cc2)cc1-c1ccc(C(=O)Nc2ccc3cc[nH]c3c2)cc1 [Example 93, 2′-Methyl-5′-(4-morpholin-4-yl-benzoylamino)-biphenyl-4-carboxylic acid (1H-indol-6-yl)-amide] | ** (** > 50 μM) | < 1 |  |
| Cc1ccc(NC(=O)c2ccc(N3CCOCC3)cc2)cc1-c1ccc(C(=O)NCc2cccc(Cl)c2)cc1 [Example 94, 2′-Methyl-5′-(4-morpholin-4-yl-benzoylamino)-biphenyl-4-carboxylic acid 3-chloro-benzylamide] | ** (** > 50 μM) | 1 to 5 |  |
| Cc1ccc(CNC(CO)Cc2cnc[nH]2)cc1-c1ccc(C(=O)Nc2ccc(N3CCOCC3)cc2)cc1 (stereo not shown) [Example 95, 5′-{[1-Hydroxymethyl-2-(3H-imidazol-4-yl)-ethylamino]-methyl}-2′-methyl-biphenyl-4-carboxylic acid (4-morpholin-4-yl-phenyl)-amide] | * (* < 50 μM) | 1 to 5 |  |
| Cc1ccc(C(=O)Nc2ccc(N3CCOCC3)cc2)cc1-c1ccc(CNCc2cccc(Cl)c2)cc1 [Example 96, 4′-[(3-Chloro-benzylamino)-methyl]-6-methyl-biphenyl-3-carboxylic acid (4-morpholin-4-yl-phenyl)-amide] | ** (** > 50 μM) | 1 to 5 |  |
| Cc1ccc(C(=O)Nc2ccc(N3CCOCC3)cc2)cc1-c1ccc(CNc2ccc3cn[nH]c3c2)cc1 [Example 97, 4′-[(1H-Indazol-6-ylamino)-methyl]-6-methyl-biphenyl-3-carboxylic acid (4-morpholin-4-yl-phenyl)-amide] | ** (** > 50 μM) | 1 to 5 |  |
| Cc1ccc(C(=O)Nc2ccc(N3CCOCC3)cc2)cc1-c1ccc(CNC2CC2)cc1 [Example 98, 4′-Cyclopropylaminomethyl-6-methyl-biphenyl-3-carboxylic acid (4-morpholin-4-yl-phenyl)-amide] | * (* < 50 μM) | 1 to 5 |  |
| Cc1ccc(C(=O)Nc2ccc(N3CCOCC3)cc2)cc1-c1ccc(CN[C@@H](CO)C(=O)O)cc1 [Example 99, (S)-3-Hydroxy-2-{[2′-methyl-5′-(4-morpholin-4-yl-phenylcarbamoyl)-biphenyl-4-ylmethyl]-amino}-propionic acid] | ** (** > 50 μM) | 1 to 5 |  |
| Cc1ccc(C(=O)Nc2ccc(N3CCOCC3)cc2)cc1-c1ccc(CNCCc2cnc[nH]2)cc1 [Example 100, 4′-{[2-(3H-Imidazol-4-yl)-ethylamino]-methyl}-6-methyl-biphenyl-3-carboxylic acid (4-morpholin-4-yl-phenyl)-amide] | ** (** > 50 μM) | 1 to 5 |  |
| Cc1ccc(C(=O)Nc2ccc(N3CCOCC3)cc2)cc1-c1ccc(CNC(CO)Cc2cnc[nH]2)cc1 (stereo not shown) [Example 101, 4′-{[1-Hydroxymethyl-2-(3H-imidazol-4-yl)-ethylamino]-methyl}-6-methyl-biphenyl-3-carboxylic acid (4-morpholin-4-yl-phenyl)-amide] | * (* < 50 μM) | < 1 |  |
| Cc1ccc(C(=O)Nc2ccc(N3CCOCC3)cc2)cc1-c1ccc(CNCCN(C)C)cc1 [Example 102, 4′-[(2-Dimethylamino-ethylamino)-methyl]-6-methyl-biphenyl-3-carboxylic acid (4-morpholin-4-yl-phenyl)-amide] | * (* < 50 μM) | 1 to 5 |  |
| Cc1ccc(C(=O)Nc2ccc(N3CCOCC3)cc2)cc1-c1ccc(NC(=O)c2cccc(Br)c2)cc1 [Example 103, 4′-(3-Bromo-benzoylamino)-6-methyl-biphenyl-3-carboxylic acid (4-morpholin-4-yl-phenyl)-amide] | ** (** > 50 μM) | 1 to 5 |  |
| Cc1ccc(C(=O)Nc2ccc(N3CCOCC3)cc2)cc1-c1ccc(NC(=O)c2nc3ccccc3nc2O)cc1 [Example 104, 3-Hydroxy-quinoxaline-2-carboxylic acid [2′-methyl-5′-(4-morpholin-4-yl-phenylcarbamoyl)-biphenyl-4-yl]-amide] | ** (** > 50 μM) | 1 to 5 |  |
| Cc1ccc(C(=O)Nc2ccc(N3CCOCC3)cc2)cc1-c1ccc(NC(=O)CNC(=O)c2ccccc2)cc1 [Example 105, 4′-(2-Benzoylamino-acetylamino)-6-methyl-biphenyl-3-carboxylic acid (4-morpholin-4-yl-phenyl)-amide] | ** (** > 50 μM) | 1 to 5 |  |
| Cc1ccc(C(=O)Nc2ccc(N3CCOCC3)cc2)cc1-c1ccc(NC(=O)Cc2cccc(Cl)c2)cc1 [Example 106, 4′-[2-(3-Chloro-phenyl)-acetylamino]-6-methyl-biphenyl-3-carboxylic acid (4-morpholin-4-yl-phenyl)-amide] | ** (** > 50 μM) | 1 to 5 |  |
| COc1cccc(C(=O)Nc2ccc(-c3cc(C(=O)Nc4ccc(N5CCOCC5)cc4)ccc3C)cc2)c1 [Example 107, 4′-(3-Methoxy-benzoylamino)-6-methyl-biphenyl-3-carboxylic acid (4-morpholin-4-yl-phenyl)-amide] | ** (** > 50 μM) | < 1 |  |
| Cc1ccc(NC(=O)c2cn[nH]c2)cc1-c1ccc(C(=O)Nc2ccc(N3CCOCC3)cc2)cc1 [Example 108, 1H-Pyrazole-4-carboxylic acid [6-methyl-4′-(4-morpholin-4-yl-phenylcarbamoyl)-biphenyl-3-yl]-amide] | ** (** > 50 μM) | 1 to 5 |  |
| Cc1ccc(C(=O)Nc2ccc(N3CCOCC3)cc2)cc1-c1ccc(NC(=O)c2ccccc2O)cc1 [Example 109, 4′-(2-Hydroxy-benzoylamino)-6-methyl-biphenyl-3-carboxylic acid (4-morpholin-4-yl-phenyl)-amide] | * (* < 50 μM) | 1 to 5 |  |
| COc1ccc(C(=O)Nc2ccc(-c3cc(C(=O)Nc4ccc(N5CCOCC5)cc4)ccc3C)cc2)cc1OC [Example 110, 4′-(3,4-Dimethoxy-benzoylamino)-6-methyl-biphenyl-3-carboxylic acid (4-morpholin-4-yl-phenyl)-amide] | ** (** > 50 μM) | 1 to 5 |  |
| Cc1ccc(C(=O)Nc2ccc(N3CCOCC3)cc2)cc1-c1ccc(NC(=O)c2cnccc2C(F)(F)F)cc1 [Example 111, N-[2′-Methyl-5′-(4-morpholin-4-yl-phenylcarbamoyl) -biphenyl-4-yl]-4-trifluoromethyl-nicotinamide] | ** (** > 50 μM) | > 5 |  |
| COc1cccc(C(=O)Nc2ccc(-c3cc(C(=O)Nc4ccc(N5CCOCC5)cc4)ccc3C)cc2)c1 [Example 112, 4′-(3-Methoxy-benzoylamino)-6-methyl-biphenyl-3-carboxylic acid (4-morpholin-4-yl-phenyl)-amide] | * (* < 50 μM) |  | 1 to 5 |
| Cc1cc(NC(=O)C2CC2)ccc1-c1cccc(C(=O)Nc2ccc(N3CCOCC3)cc2)c1 [Example 113, 4′-(Cyclopropanecarbonyl-amino)-2′-methyl-biphenyl-3-carboxylic acid (4-morpholin-4-yl-phenyl)-amide] | * (* < 50 μM) | > 5 |  |
| Cc1cc(NC(=O)c2ccco2)ccc1-c1cccc(C(=O)Nc2ccc(N3CCOCC3)cc2)c1 [Example 114, Furan-2-carboxylic acid [2-methyl-3′-(4-morpholin-4-yl-phenylcarbamoyl)-biphenyl-4-yl]-amide] | * (* < 50 μM) | > 5 |  |
| COc1ccccc1C(=O)Nc1ccc(-c2cccc(C(=O)Nc3ccc(N4CCOCC4)cc3)c2)c(C)c1 [Example 115, 4′-(2-Methoxy-benzoylamino)-2′-methyl-biphenyl-3-carboxylic acid (4-morpholin-4-yl-phenyl)-amide] | * (* < 50 μM) | 1 to 5 |  |
| COc1cccc(C(=O)Nc2ccc(-c3cccc(C(=O)Nc4ccc(N5CCOCC5)cc4)c3)c(C)c2)c1 [Example 116, 4′-(3-Methoxy-benzoylamino)-2′-methyl-biphenyl-3-carboxylic acid (4-morpholin-4-yl-phenyl)-amide] | * (* < 50 μM) | 1 to 5 |  |
